Assay [1] has as its system pancreatic progenitor-like cells (PPLCs). The assay can be described thus: Maturation of PPLCs into pancreatic-like cells (insulin/Pdx1, day 25). The conditions noted are these: 5 μM SB203580 or 280 μM pVc used individually.
In assay [2] the test system is Dox-inducible secondary mouse embryonic fibroblasts (MEFs). The assay can be described thus: Direct reprogramming of fibroblasts into definitive endoderm-like cells (Sox17/Foxa2). The assay is classed as cell-based. The following applies: treatment in first two steps.
Description: To extend and test the iPSC-factor-based lineage-specific reprogramming paradigm to endoderm, a two-step process was first devised to directly reprogram secondary MEF cells into definitive endoderm-like cells (DELCs). The first step (step I) involved culturing secondary MEF cells in media (Med-I) that is supplemented with 4 μg/ml Dox to initiate epigenetic activation. The second step (step II) was culturing the epigenetically activated cells in Med-II supplemented with 50 ng/ml Activin A and 1 mM LiCl (hereafter referred to as Activin/Li). […] Hereafter these Sox17/Foxa2 double-positive cells are referred to as definitive endoderm-like cells (DELCs).
To test this hypothesis, conditions were evaluated in which definitive endoderm induction factors (Activin/Li) were added to fibroblasts either after (Approach-I) or during (Approach II) iPSC factor expression, using Sox17 and Foxa2 expression as a measure of DELC induction (FIG. 1A).
For assay [3] the test system is unchanged. The assay can be described thus: Pdx1+/Nkx6.1+ colony number on day 16 after small molecules in first/second step. The conditions noted are these: 1 μM Bix-01294 D0 to D6; 280 μM pVc D0 to D12; readout day 16.
For assay [4], the system named is definitive endoderm-like cells (DELCs). The assay can be described thus: Induction of pancreatic progenitor-like cells from DELCs (Pdx1/Nkx6.1 staining). The conditions noted are these: 400-compound collection; confirmed in larger-well cultures. The assay is classed as cell-based, mouse.
Description: At the end of treatment, lineage specific markers were analyzed by immunostaining and/or real-time.
Primary antibodies used were Sox17 (R&D), Foxa2 (Millipore), Pdx1 (R&D), Hnf6 (Santa Cruz), Pax6 (Covance), Sox9 (Santa Cruz), Nkx6.1 (Developmental Studies Hybridoma Bank), Insulin (Dako), Glucagon (Sigma), Somatostatin (Abeam), Amylase (Abeam), and CK19 (Abcam). Nuclei were visualized by DAPI (Sigma-Aldrich) staining Images were captured using a Nikon Eclipse TE2000-U microscope.
An available drug collection of 400 compounds in the 48well format was screened to identify small molecules that induce high percentages of Pdx 1^+/NKx6.1^+ cells in DELC populations. Med-III medium (DMEM supplemented with 1 kB27, 2 mM GLUTAMAX™) was used as the basal condition and double staining of Pdx1 and Nkx 6.1 at 4 days post-induction was used as the readout.
In assay [5] the test system is MKN45, U87MG, MDA-MB-231, COLO205, and A549 tumor cells. The conditions noted are these: 20 mg/kg-60 mg/kg; c-Met-driven or non-c-Met-driven xenografts; cited from earlier work.
The test system of assay [6] is histone deacetylases (HDACs). The conditions noted are these: isoform not stated; read-out: IC50 (histone deacetylase); cited from earlier work.
Assay [7] concerns Human foreskin fibroblasts (CRL-2097). The assay can be described thus: Conversion of human fibroblasts into definitive endodermal progenitor cells (FOXA2 positive colonies). The following applies: Parnate, RG108 condition.
For another assay, the target named is p38 MAPK (Homo sapiens, UniProt Q16539). The conditions noted are these: read-out: IC50 for p38 MAPK; cited from earlier work.
In a further assay the target is γ-secretase. The conditions noted are these: read-out: IC50 for total β-amyloid; cited from earlier work.
Assay [8] concerns pancreatic endodermal progenitor cells (cPE cells). The assay can be described thus: Maturation of cPE cells into C-peptide positive cells, chemical screen. The following applies: added individually to basal pancreatic differentiation media.
For the next assay, the system named is presenilase. The conditions noted are these: higher concentrations (20-400 μM); cited from earlier work.
The subject of assay [9] is pancreatic endodermal progenitor (cPE) cells. The assay can be described thus: Protocol 2 maturation of cPE cells into cPB cells (INSULIN mRNA, C-peptide cells).
Assay [10] deals with MEL1 INS GFP/W hESC spheres. The assay is described as follows: hESC suspension differentiation, flow cytometry of PDX1 and NKX6.1. The assay is classed as cell-based, human. The conditions noted are these: day 9.5. (In general: A flow cytometer gives signals particle by particle.)
Excerpt: Treatments consisted of combinations of Cyclopamine (C), Noggin (N), and retinoic acid (R) during days 6-8, followed by subdivision of each condition into three treatment groups during day 9-9.5. Group 1) continuation of day 6-8 treatment; Group 2) treatment with EGF and KGF (EK); Group 3) treatment with EGF, KGF, and Noggin (EKN). […] Data shown are representatives of results obtained in two independent experiments. […] FIG. 17B: Quantification of PDX1 (orange gate) and NKX6.1 (blue gate) protein expressing cells in individual conditions after 9.5 days of differentiation.
Suspension-based differentiations were carried out as follows. Briefly, confluent cultures were dissociated into single cell suspension by incubation with TrypLE (Gibco). […] To induce definitive endoderm differentiation, aggregates were collected 24 hours later in a 50 ml falcon tube, allowed to settle by gravity, washed once with PBS and re-suspended in d1 media (RPMI (Gibco) containing 0.2% FBS, 1:5000 ITS (Gibco), 100 ng/ml Activin A, and 50 ng/ml WNT3a (R&D systems)). Clusters from 3 wells were combined into 2 wells at this point and distributed into fresh low-attachment plates in 5.5 ml d1 media. Media thereafter was changed daily, by removing either 4.5 ml media (at the end of d1) or 5.5 ml media the following days and adding back 5.5 ml fresh media until day 9. After day 9, only 5 ml of media was removed and added daily.
Briefly, spheres were collected and allowed to settle by gravity. Clusters were washed once in PBS and dissociated by gentle pipetting after 12-15 minutes incubation in Accumax (Innovative Cell Technologies). For sorting, cell suspensions were filtered and re-suspended in FACS buffer consisting of phosphate-buffered saline (PBS) (UCSF cell culture facility) containing 2 mM EDTA (Ambion) and 1% BSA (Sigma). Dead cells were excluded by DAPI (Sigma) staining Cell sorting was performed on a FACS Aria II (BD Bioscience). […]
For a further assay, the target named is SAPK2/p38 (Homo sapiens, UniProt Q16539). The conditions noted are these: cited from earlier work.
The next assay concerns the target T1, Axl (Homo sapiens, UniProt P30530).
T1 sequence (P30530 26-894): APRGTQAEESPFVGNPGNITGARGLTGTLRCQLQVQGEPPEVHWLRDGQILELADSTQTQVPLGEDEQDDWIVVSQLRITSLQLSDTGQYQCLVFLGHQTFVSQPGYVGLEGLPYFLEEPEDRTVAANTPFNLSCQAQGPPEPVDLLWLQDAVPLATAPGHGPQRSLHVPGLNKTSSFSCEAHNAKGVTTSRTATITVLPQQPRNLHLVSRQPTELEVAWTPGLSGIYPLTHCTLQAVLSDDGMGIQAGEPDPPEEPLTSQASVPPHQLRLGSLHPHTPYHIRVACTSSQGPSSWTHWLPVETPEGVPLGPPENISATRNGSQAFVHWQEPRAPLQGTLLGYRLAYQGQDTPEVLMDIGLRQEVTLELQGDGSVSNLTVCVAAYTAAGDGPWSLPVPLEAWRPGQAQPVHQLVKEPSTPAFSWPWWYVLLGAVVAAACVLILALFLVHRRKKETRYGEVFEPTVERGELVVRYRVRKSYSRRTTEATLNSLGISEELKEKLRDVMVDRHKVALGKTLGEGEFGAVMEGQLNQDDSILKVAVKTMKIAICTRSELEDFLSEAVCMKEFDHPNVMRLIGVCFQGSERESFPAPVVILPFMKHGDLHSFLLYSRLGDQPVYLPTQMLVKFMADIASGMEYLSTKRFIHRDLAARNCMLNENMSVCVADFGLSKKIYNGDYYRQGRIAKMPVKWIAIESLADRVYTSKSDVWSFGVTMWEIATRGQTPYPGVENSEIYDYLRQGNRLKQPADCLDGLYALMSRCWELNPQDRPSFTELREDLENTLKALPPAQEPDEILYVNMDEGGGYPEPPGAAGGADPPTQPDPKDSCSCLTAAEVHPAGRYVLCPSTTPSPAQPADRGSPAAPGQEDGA
The following applies: 1 μM; cited from earlier work.

The subject of assay [11] is HDAC activity in HeLa extracts. The following applies: read-out: IC50 for inhibition of HDAC activity; cited from earlier work.
Assay [12] deals with Src-dependent cell proliferation. The following applies: cited from earlier work.

In general, IC50 refers to the point on the concentration scale where inhibition reaches its midpoint.

Chain of p38 MAPK (Q16539 whole entry): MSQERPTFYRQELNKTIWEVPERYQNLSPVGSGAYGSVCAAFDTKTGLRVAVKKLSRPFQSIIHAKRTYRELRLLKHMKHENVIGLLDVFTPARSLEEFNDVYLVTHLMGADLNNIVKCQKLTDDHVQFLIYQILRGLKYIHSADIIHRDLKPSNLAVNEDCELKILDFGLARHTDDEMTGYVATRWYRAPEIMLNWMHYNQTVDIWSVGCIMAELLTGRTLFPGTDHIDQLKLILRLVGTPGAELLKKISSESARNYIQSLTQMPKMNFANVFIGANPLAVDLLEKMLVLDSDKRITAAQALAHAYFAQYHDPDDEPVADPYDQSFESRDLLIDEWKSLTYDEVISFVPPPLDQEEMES
Chain of SAPK2/p38 (Q16539 whole entry): as above

As for `C[S+]([O-])c1ccc(-c2nc(-c3ccc(F)cc3)c(-c3ccncc3)[nH]2)cc1` (stereo not drawn) [SB203580, 4-(4-fluorophenyl)-2-(4-methylsulfinylphenyl)-5-(4-pyridyl)-1H-imidazole], the “number of insulin+/Pdx1+ double-positive cells” value in assay [1] is listed as “significantly increased”. With “2-Phospho-L-ascorbic acid trisodium salt [pVc]”, the “numbers of Sox17 and Foxa2 single positive and double positive cells” value in assay [2] is listed as “no significant influence”. In addition, the “number of Pdx1+/Nkx6.1+ colonies” value in [3] is roughly 4 fold. Moreover, the “screen result: increase of Pdx1 and/or Nkx6.1 expression” value (from here on “screen result: increase”) in assay [4] is “Confirmed hits”. For the same compound, the “number of insulin+/Pdx1+ double-positive cells” value in [1] was “significantly increased”. For `Cn1cnc(-c2cc3nccc(Oc4ccc(NC(=S)NC(=O)Cc5ccccc5)cc4F)c3s2)c1` [MGCD-265], the “tumor growth and c-Met signaling” value in assay [5] is “inhibits tumor growth and c-Met signaling”. Regarding `CC1(C)NC(=O)C(CCCCCC(=O)[C@H]2CO2)NC(=O)C2CCCN2C(=O)[C@@H](Cc2ccccc2)NC1=O` (stereo partly drawn) [Chlamydocin, (3R)-3-benzyl-6,6-dimethyl-9-[6-[(2R)-oxiran-2-yl]-6-oxohexyl]-1,4,7,10-tetrazabicyclo[10.3.0]pentadecane-2,5,8,11-tetrone], in assay [6], the IC50 is roughly 0.15 nM. On to `Cc1c(C(=O)Nc2ccc(N3C[C@@H](C)O[C@@H](C)C3)nc2)cccc1-c1ccc(OC(F)(F)F)cc1` [LDE225], for which, in assay [4], the “screen result: increase” value is on record as “Confirmed hits”.

As to `CC(/C=C/C(=O)NO)=C\[C@@H](C)C(=O)c1ccc(N(C)C)cc1` [Trichostatin A, (R,2E,4E)-6-(4-(dimethylamino)benzoyl)-N-hydroxy-4-methylhepta-2,4-dienamide], the concentration for half-maximal inhibition (IC50) in assay [6] was roughly 1.8 nM.

With `CCNC(=O)[C@H]1O[C@@H](n2cnc3c(N)ncnc32)C(O)C1O` (stereo partly drawn) [NECA, 5′-N-ethylcarboxamidoadenosine], the “increase of conversion rate over the basal protocol” value in assay [7] (NECA added to NaB) is on record as 5 fold. Also, the “further increase of conversion rate over the improved condition” value in assay [7] (added to NaB) is recorded as 2 fold. Consider `Nc1ccccc1NC(=O)c1ccc(CNC(=O)OCc2cccnc2)cc1` [MS-27-275], for which, in assay [6], the IC50 is 100 to 1000 nM. As to `Cc1cccc(-c2n[nH]cc2-c2ccc3ncccc3n2)n1` [ALK5 inhibitor II, 2-(3-(6-methylpyridine-2-yl)-1H-pyrazol-4-yl)-1,5-naphthyridine], the half-inhibitory concentration (IC50) at p38 MAPK was greater than 16000 nM.

Take `C[C@H](NC(=O)Cc1cc(F)cc(F)c1)C(=O)N[C@H]1N=C(c2ccccc2)c2ccccc2N(C)C1=O` [Compound E]: the IC50 at γ-secretase is 0.3 nM. For the same compound, the “percentage of C-peptide positive cells, individual supplementation” value in assay [8] is listed as “effective in increasing”. In addition, in the assay with presenilase, the “effect on presenilase activity” value was “only weakly affects”.

`COC(=O)C1=C(C)NC(C)=C([N+](=O)[O-])C1c1ccccc1C(F)(F)F` (stereo not drawn) [BayK-8644, 3-pyridinecarboxylic acid, 1,4-dihydro-2,6-dimethyl-5-nitro-4-(2-(trifluoromethyl)phenyl), methyl ester]: the “percentage of C-peptide positive cells, individual supplementation” value in [8] is given as “effective in increasing”. Also, the “number of C-peptide positive cells co-expressing PDX1 and NKX6.1” value in [9] is on record as “increased”. Further, the “expression of the INSULIN gene (mRNA)” value in [9] (day 21, compared to DMSO controls) is on record as “promoted expression”. As for `CC1=C(/C=C/C(C)=C/C=C/C(C)=C/C(=O)O)C(C)(C)CCC1` [retinoic acid], in [10] (days 6-8, alone or in combination (conditions 4, 5, 6), group 1), the PDX1 positive progenitors is recorded as greater than 88%. In the case of `COc1cc2nc(N3CCCN(C)CC3)nc(NC3CCN(Cc4ccccc4)CC3)c2cc1OC` [Bix-01294], the “numbers of Sox17 and Foxa2 single positive and double positive cells” value in assay [2] is recorded as “no significant influence”. Besides, in [3], the “number of Pdx1+/Nkx6.1+ colonies” value is recorded as “about 3 fold”. As for `CC1=C2C[C@H]3[C@@H](CC=C4C[C@@H](O)CC[C@@]43C)[C@@H]2CC[C@]12O[C@@H]1C[C@H](C)CN[C@H]1[C@H]2C` [Cyclopamine], in assay [10] (alone, conditions 2 and 3), the “generation of PDX1+ cells over base media alone” value was “did not result in enhanced generation”.

Turning to `NC(=O)c1ccc(-c2nc(-c3ccc4c(c3)OCCO4)c(-c3ccccn3)[nH]2)cc1` [D 4476, 4-[4-(2,3-Dihydro-1,4-benzodioxin-6-yl)-5-(2-pyridinyl)-IH-imidazol-2-yl]benzamide], on SAPK2/p38, the “selectivity over SAPK2/p38” value is listed as “greater than 20 fold”. On to `S=C(NCc1ccc2c(c1)OCO2)N1CCN(c2ncnc3c2oc2ccccc23)CC1` [Amuvatinib], for which, at Axl, the “tyrosine phosphorylation of AXL” value was “inhibits tyrosine phosphorylation of AXL”. Consider `Nc1ccccc1NC(=O)c1ccc(CNc2nccc(-c3cccnc3)n2)cc1` [MGCD0103, N-(2-aminophenyl)-4-[[(4-pyridin-3-ylpyrimidin-2-yl)amino]methyl]benzamide], for which the half-maximal inhibitory concentration (IC50) in assay [6] was roughly 100 nM. For the compound `Nc1ccccc1NC(=O)CCCCCCC(=O)Nc1ccccc1` [BML-210, N1-(2-aminophenyl)-N8-phenyl-octanediamide], the IC50 in assay [11] was roughly 80000 nM. On to `Cc1cccc(-c2nn(C(=S)Nc3ccccc3)cc2-c2ccnc3ccccc23)n1` [A83-01, 3-(6-Methyl-2-pyridinyl)-N-phenyl-4-(4-quinolinyl)-1H-pyrazole-1-carbothioamide], for which the “screen result: increase” value in assay [4] is “Confirmed hits”.

As to `CC1NC(=O)C(C)NC(=O)C2CCCN2C(=O)C(CCCCCCC(=O)C2CO2)NC1=O` [HC Toxin, (6R,9S,14aR)-3,6R-dimethyl-9S-(7-((S)-oxiran-2-yl)-7-oxoheptyl)decahydropyrrolo[1,2-a][1,4,7,10]tetraazacyclododecine-1,4,7, 10-tetranone], the IC50 in [6] is 30 nM.

Consider `COc1cc(Nc2c(C#N)cnc3cc(OCCCN4CCN(C)CC4)c(OC)cc23)c(Cl)cc1Cl` [Bosutinib], for which, in [12], the 50% inhibitory concentration (IC50) was 100 nM.
